The values that follow come from US20230407249A1, “Media and methods for establishing and maintaining early embryo-like cells” (BGI SHENZHEN GROUP HOLDINGS CO., LIMITED, priority 2020, published 2023).

In one test the test system is primed human PSCs. Put plainly: Conversion of primed human PSCs to ICLCs (ICM marker expression, colony morphology). It counts as cell-based. The protocol:
One day before initiation of conversion, primed human PSCs were washed with PBS once and dissociated into single cells and plated at a density of 1,000 to 1,500 cells/cm^2 on feeder in mTeSR1 or E8 medium supplemented with 10 μM Y27632. Twenty-four hours later, culture medium was switched to 4CL medium 1. The culture medium was refreshed with the same medium every 24 hours. Colonies became round and domed-shape in 24 to 48 hours. Cells were passaged every 3 to 4 days. For passaging, cells were dissociated into single cells using TrypLE: 0.5 mM EDTA (1:1) and plated at a density of 1,000 to 1,500 cells/cm^2 on feeder (feeders were seeded on Geltrex™/Matrigel™ pre-treated plate) (FIG. 1). The ICLCs induction and maintenance can be conducted under hypoxic condition (37° C., 5% CO2, 5% O2), or normoxic condition (37° C., 5% CO2, 21% O2) (FIG. 34), preferably hypoxia condition.
Using the same procedures of example 1, except plating cells on 1% (v/v) Geltrex™ in DMEM-F12 (cat #) coated plates instead of on feeder cells.
Primed human PSCs were cultured following the same procedures of example 1. One day before initiation of the conversion, primed human PSCs were dissociated into single cells and plated 60,000 cells/well in Aggrewell™800 plates using mTeSR1 or E8 medium supplemented with 10 μM Y27632. […]

Test [1] concerns primed human PSCs or ICLCs. Put plainly: Conversion of primed human PSCs or ICLCs to 8CLCs (8C marker expression). It counts as cell-based. The settings on record: CHIR99021 included in e4CL, or IWR1 withdrawn from e4CL. The protocol: Primed human PSCs were cultured following the same procedures of example 1. One day before initiation of the conversion, primed human PSCs were dissociated into single cells and plated at 2,000 to 3,000 cells/cm^2 on feeder using mTeSR1 or E8 medium supplemented with 10 μM Y27632. Twenty-four hours later, culture medium was changed into e4CL medium, cells were cultured in incubator at 37° C., 5% CO2, hypoxic or normoxic condition. Medium was refreshed daily. Cells were passaged every 3 to 4 days. For passaging, cells were dissociated into single cells using TrypLE: 0.5 mM EDTA (1:1), plated at 2,000 to 3,000 cells/cm^2 on feeder coated plates. Generally, cells were converted to 8CLCs in approximately one week. One day before initiation of the conversion, ICLCs were dissociated into single cells and plated at 2,000 to 3,000 cells/cm^2 on feeders using 4CL medium. Twenty-four hours later, culture medium is changed into e4CL medium. Medium was refreshed daily. Cells were converted to 8CLCs in 3 to 5 days without passaging. ICLCs were cultured following the same procedures of example 1. One day before initiation of the conversion, ICLCs were dissociated into single cells and resuspended in 4CL medium at a density of 300,000 cells/ml. The cell suspension was added into flasks for suspension culture (Greiner Bio-One, 658190). […]

With `Cc1c[nH]c(-c2cnc(NCCNc3ccc(C#N)cn3)nc2-c2ccc(Cl)cc2Cl)n1` [CHIR99021], the ICLC formation result with primed human PSCs (CHIR99021 included in 4CL, or IWR1 withdrawn from 4CL) is listed as “inhibits formation of ICLC”. Also, the 8CLC formation result in test [1] is “inhibits formation of 8CLC”.
On to `O=C1O[C@H]([C@@H](O)CO)C(O)=C1O` [L-ascorbic acid], for which the “expression levels of ICM specific genes such as DNMT3L, STELLA, DPPA5, KLF17” value with primed human PSCs (final concentration of 40 to 70 μg/ml) is on record as “potently increases”.
